Data: patent US7842671B1, “Peptidomimetic inhibitors of STAT activity and uses thereof” (University of South Florida, priority 2003, dated 2010)

Key:
NIH3T3 = assay: Apo-BrdU labeling and flow cytometry for apoptotic cells; format: cell-based, mouse; settings: NIH3T3, 1 mM, 48 h, flow cytometry
Protocol: (§1) Cell proliferation, soft-agar growth and Apo-BrdU labeling studies. Proliferating fibroblasts and human tumor cells were counted by phase-contrast microscopy for viable cells (using tyrpan blue exclusion). Colony formation assays in six-well dishes and quantification of colonies by iodonitrotetrazolium violet have been previously described (Turkson, J. et al. (1999)). Treatment of cells with inhibitors was initiated 1 day after seeding cells by adding 75 μl of medium with or without inhibitor, and repeated every two to three days. Apoptosis was measured by Apo-BrdU labeling and following the supplier's (PharMingen; San Diego, Calif.) instructions.
(§2) Because one of the functions of Stat3 is to protect transformed or tumor cells from apoptosis (Catlett-Falcone, R. et al. (1999b); Epling-Burnette, P. K. et al. (2001); Grandis, J. R. et al. (2000); Bowman, T. et al. (2000b); Bromberg, J. F. et al. (1999)), the ability of peptidomimetics of the invention (and PY*LKTK-MTS for comparison) (SEQ ID NO. 1) to induce apoptosis in Stat3-dependent transformed fibroblasts was evaluated. Viral Src-transformed NIH3T3/v-Src fibroblasts were treated with or without compounds for 48 h. Treated cells were then labeled with Apo-BrdU (PharMingen; San Diego, Calif.) for detection of DNA breaks.

NIH3T3/v-Src = assay: as above; format: cell-based, mouse; settings: 48 h
Protocol: as §1, §2

MDA-MB-435 = format: cell-based, human; settings: 1 mM, MDA-MB-435, four days
Protocol: as §1
(§3) Stat3 has an essential role in cell proliferation, and constitutively-active Stat3 is required for growth of transformed and tumor cells that harbor aberrant Stat3 signaling. Studies were performed to determine the effects of the peptidomimetic-mediated inhibition of Stat3 on cell proliferation using trypan blue exclusion for viable cell counts.

MDA-MB-453 = format: cell-based, human; settings: 1 mM
Protocol: as §1, §3

MDA-MB-231 = format: cell-based, human; settings: 1 mM, MDA-MB-231, four days
Protocol: as §1, §3

Stat3 [1] = biological target: T1, Stat3 (Homo sapiens, UniProt P40763); format: cell-based
T1 construct: endogenous in cells; host or cells: A549, MDA-MB-231, MDA-MB-435, MDA-MB-468
T1 sequence (P40763 whole entry): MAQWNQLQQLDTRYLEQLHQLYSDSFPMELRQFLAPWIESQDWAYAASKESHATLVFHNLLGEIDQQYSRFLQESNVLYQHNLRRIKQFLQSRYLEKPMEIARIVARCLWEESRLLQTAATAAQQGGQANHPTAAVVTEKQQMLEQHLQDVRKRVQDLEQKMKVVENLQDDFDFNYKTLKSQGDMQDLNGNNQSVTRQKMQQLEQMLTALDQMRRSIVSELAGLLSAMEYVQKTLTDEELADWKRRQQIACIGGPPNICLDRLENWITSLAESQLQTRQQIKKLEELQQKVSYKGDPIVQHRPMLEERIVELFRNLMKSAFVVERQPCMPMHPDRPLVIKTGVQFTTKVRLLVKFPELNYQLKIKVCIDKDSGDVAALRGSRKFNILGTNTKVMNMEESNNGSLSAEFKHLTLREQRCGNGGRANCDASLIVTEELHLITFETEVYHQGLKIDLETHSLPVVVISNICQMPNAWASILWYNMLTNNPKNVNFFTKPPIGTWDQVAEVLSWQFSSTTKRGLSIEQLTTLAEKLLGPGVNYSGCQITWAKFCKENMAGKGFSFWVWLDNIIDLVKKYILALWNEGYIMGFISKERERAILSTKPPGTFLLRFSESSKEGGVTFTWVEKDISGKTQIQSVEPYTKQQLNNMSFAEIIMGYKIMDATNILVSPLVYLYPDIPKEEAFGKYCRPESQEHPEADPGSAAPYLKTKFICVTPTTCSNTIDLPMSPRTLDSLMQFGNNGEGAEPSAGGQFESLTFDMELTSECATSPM
Protocol: (§4) Nuclear extract preparation and gel shift assays. Nuclear extracts were prepared from cell lines and used for electrophoretic mobility shift assay (EMSA) as previously described (Garcia, R. et al. (1997); Yu, C. L. et al. (1995); Turkson, J. et al. (1998)). In some cases, cells were pre-treated with peptidomimetics for the indicated times (12-48 h) prior to harvesting for nuclear extract preparation. In other studies, nuclear extracts were pre-incubated with peptidomimetics for 30 min at room temperature prior to incubation with radiolabeled probe. The ^32P-radiolabeled oligonucleotide probes used are hSIE (high affinity sis-inducible element, m67 variant, 5′-[…]-3′) (SEQ ID NO. 3) that binds both Stat1 and Stat3 (Garcia, R. et al. (1997); Wagner B. J. et al. (1990)) and MGFe (mammary gland factor element from the bovine β-casein gene promoter, 5′-[…]-3′) (SEQ ID NO. 4) that binds Stat1 and Stat5 (Gouilleux, F. et al. (1995); Seidel, H. M. et al. (1995)).

Stat1:Stat1 = biological target: T2, Stat1:Stat1 (Mus musculus, UniProt P42225); assay: EMSA of Stat1:Stat1 DNA-binding in nuclear extracts; format: biochemical
T2 construct: nuclear extracts (prepared from epidermal growth factor (EGF)-stimulated fibroblasts); endogenous in cells; host or cells: NIH3T3 fibroblasts stimulated with EGF
T2 sequence (P42225 1-749): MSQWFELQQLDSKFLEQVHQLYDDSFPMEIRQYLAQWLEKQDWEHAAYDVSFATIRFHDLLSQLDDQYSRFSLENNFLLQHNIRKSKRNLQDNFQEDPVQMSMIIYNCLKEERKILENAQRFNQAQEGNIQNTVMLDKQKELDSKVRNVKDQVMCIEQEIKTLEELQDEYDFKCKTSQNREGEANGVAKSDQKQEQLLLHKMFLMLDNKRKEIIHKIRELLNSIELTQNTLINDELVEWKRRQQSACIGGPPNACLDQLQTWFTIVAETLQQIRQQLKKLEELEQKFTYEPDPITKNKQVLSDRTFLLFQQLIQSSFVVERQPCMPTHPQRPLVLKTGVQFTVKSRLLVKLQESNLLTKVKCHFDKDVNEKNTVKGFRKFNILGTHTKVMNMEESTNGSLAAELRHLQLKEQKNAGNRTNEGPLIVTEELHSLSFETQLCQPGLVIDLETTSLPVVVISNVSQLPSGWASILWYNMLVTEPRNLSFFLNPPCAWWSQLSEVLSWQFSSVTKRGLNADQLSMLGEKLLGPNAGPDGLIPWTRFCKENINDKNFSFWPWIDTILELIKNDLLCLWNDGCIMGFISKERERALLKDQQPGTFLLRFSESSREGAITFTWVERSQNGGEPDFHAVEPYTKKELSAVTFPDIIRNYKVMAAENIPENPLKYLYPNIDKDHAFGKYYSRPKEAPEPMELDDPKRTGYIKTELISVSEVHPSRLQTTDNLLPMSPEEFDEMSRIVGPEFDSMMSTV
Protocol: as §4
(§5) Peptidomimetics of the invention can be prepared by replacing prolyl or alanyl residue at the peptide bond that is N-terminal to the phosphotyrosine (Y*) of a peptide such as PY*L or AY*L with an organic substituent such as an optionally substituted aryl or heteroaryl group. The activities of STATs were measured in nuclear extracts (prepared from epidermal growth factor (EGF)-stimulated fibroblasts) as DNA-bound protein complexes by electrophoretic mobility shift assay (EMSA). STAT-DNA complexes detected include Stat3:Stat3 homodimers (upper band), Stat1:Stat3 heterodimers (intermediate band) and Stat1:Stat1 homodimers (lower band) (FIG. 1A) when a ^32P-labeled hSIE oligonucleotide probe is used, or Stat5:Stat5 (upper band) and Stat1:Stat1 dimers (lower band) (FIG. 1B) when ^32P-labeled MGFe is used as a probe.

Stat5:Stat5 = assay: EMSA of Stat5:Stat5 DNA-binding in nuclear extracts; format: biochemical, mouse; settings: nuclear extracts pre-incubated 30 min, mean and SD of at least 3 assays, read-out: IC50 values against STAT Dimers, Stat5:Stat5
Protocol: as §4, §5

Stat3 [2] = biological target: Stat3 (Mus musculus, UniProt P42227); format: cell-based; set-up: nuclear extracts (prepared from epidermal growth factor (EGF)-stimulated fibroblasts); endogenous in cells; host or cells: NIH3T3 fibroblasts stimulated with EGF
Sequence of Stat3 (Mus musculus, UniProt P42227) (P42227 whole entry): as the sequence (P40763 whole entry) above, with E760D counted along it

Question: Which results are given for `CC(C)CC(NC(=O)C(Cc1ccc(OP(=O)(O)O)cc1)NC(=O)c1ccc(C#N)cc1)C(=O)O` (centres unmarked) [ISS 610]?
Answer: percent of apoptotic cells (NIH3T3): 0.3%; percent of apoptotic cells (NIH3T3/v-Src; NIH3T3/v-Src, 1 mM, Apo-BrdU, flow cytometry): 21.4%; incorporated BrdUTP compared to controls (in words) (NIH3T3/v-Src; Src-transformed fibroblasts): dramatic increases in incorporated BrdUTP; cell proliferation (MDA-MB-435): significantly suppresses proliferation; cell proliferation (MDA-MB-453): no effect on cell proliferation; cell proliferation (MDA-MB-231): significantly suppresses proliferation; Stat3 activation in breast carcinoma cells (EMSA) (Stat3 [1]): time-dependent reduction of Stat3 activation; Stat3 activation in human non-small cell lung carcinoma cells (EMSA) (Stat3 [1]): time-dependent reduction of Stat3 activation; IC50 (Stat1:Stat1): 310 µM; IC50 (Stat5:Stat5): 285 µM; ligand (EGF)-induced STAT activation (Stat3 [2]): preferential inhibition of activation of Stat3
